Results published in patent US9657351B2, “MRNA-based gene expression for personalizing patient cancer therapy with an MDM2 antagonist” (Hoffmann-La Roche Inc., priority 2013, dated 2017).
pIC50: −log10 of the molar value. Where two headings read alike, the source gives them in different places.

What was measured:
[1] = test system: Ki-67-positive tumor cells; assay: NP21280 solid tumor trial, tumor biopsy biomarker (Ki67); format: in vivo, human; conditions: p=2.62×10−2
Procedure: The predictive mRNA signature is also evaluated in two solid tumor trials (FIG. 1). In trial NP21280 30 patients with pretreatment and C1D5 tumor biopsy samples are evaluated; and in NP22890 20 patients with pretreatment and C1D8 tumor biopsy samples are evaluated (Table 6). In both clinical trials, a biomarker package that enabled assessment of p53 pathway activation is assessed (p53 IHC, p21 IHC, MDM2 mRNA, and Ki67), MDM2 inhibition activates the P53 pathway and decreases cell proliferation.

[2] = test system: P21; assay: NP21280 solid tumor trial, tumor biopsy biomarker (p21 IHC); format: in vivo, human; conditions: p=2.32×10−3
Procedure: The predictive mRNA signature is also evaluated in two solid tumor trials (FIG. 1). […] In both clinical trials, a biomarker package that enabled assessment of p53 pathway activation is assessed (p53 IHC, p21 IHC, MDM2 mRNA, and Ki67), MDM2 inhibition activates the P53 pathway and decreases cell proliferation.

[3] = test system: Ki-67-positive tumor cells; conditions: NP22890; as previously reported; cited from earlier work
[4] = clinical; conditions: both, human, in vivo, AUC0-24, median
[5] = test system: P21; conditions: NP22890; at C1D8; as previously reported; cited from earlier work
[6] = test system: MDM2 mRNA; conditions: NP22890; at C1D8; as previously reported; cited from earlier work
[7] = test system: HT-29; assay: COMPOUND A In Vitro Assay; format: cell-based; conditions: Homo sapiens, Intestine, large, colon, TP53 Mutant
In short: (§1)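 IC50 is the reported therapy response, obtained by high-throughput screening of human cancer cell lines exposed to RG7112. Values at or below 1 classify a line as sensitive. Values of 10 or more mark it resistant.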

[8] = test system: NCI-H838; assay: COMPOUND A In Vitro Assay; format: cell-based; conditions: Homo sapiens, Lung, TP53 Mutant
In short: as §1

[9] = test system: Hs 38•T; assay: COMPOUND A In Vitro Assay; format: cell-based; conditions: Homo sapiens
In short: as §1

[10] = test system: Detroit 562; assay: COMPOUND A In Vitro Assay; format: cell-based; conditions: Homo sapiens, Pharynx, TP53 Mutant
In short: as §1

[11] = test system: TT; assay: COMPOUND A In Vitro Assay; format: cell-based; conditions: Homo sapiens, Thyroid gland, TP53 Wild type
In short: as §1

[12] = test system: SW1116; assay: COMPOUND A In Vitro Assay; format: cell-based; conditions: Homo sapiens, SW 1116, Intestine, large, colon, TP53 Mutant
In short: as §1

[13] = test system: HEL; assay: COMPOUND A In Vitro Assay; format: cell-based; conditions: Homo sapiens, Lymphocyte, peripheral blood, TP53 Mutant
In short: as §1

[14] = test system: BT-474; assay: COMPOUND A In Vitro Assay; format: cell-based; conditions: Homo sapiens, Breast, mammary gland, TP53 Mutant
In short: as §1

[15] = test system: ARH-77; assay: COMPOUND A In Vitro Assay; format: cell-based; conditions: Homo sapiens, Lymphocyte B, peripheral blood, TP53 Mutant
In short: as §1

[16] = test system: 786-O; assay: COMPOUND A In Vitro Assay; format: cell-based; conditions: Homo sapiens, 786-0, Kidney, TP53 Mutant
In short: as §1

[17] = test system: BT-20; assay: COMPOUND A In Vitro Assay; format: cell-based; conditions: Homo sapiens, Breast, mammary gland, TP53 Mutant
In short: as §1

[18] = test system: PANC-1; assay: COMPOUND A In Vitro Assay; format: cell-based; conditions: Homo sapiens, Pancreas, TP53 Mutant
In short: as §1

[19] = test system: BxPC-3; assay: COMPOUND A In Vitro Assay; format: cell-based; conditions: Homo sapiens, Pancreas, TP53 Mutant
In short: as §1

[20] = test system: SJCRH30; assay: COMPOUND A In Vitro Assay; format: cell-based; conditions: Homo sapiens, Muscle, TP53 Mutant
In short: as §1

[21] = test system: EGI-1; assay: COMPOUND A In Vitro Assay; format: cell-based; conditions: Homo sapiens, Bile duct, TP53 Mutant
In short: as §1

[22] = test system: HCC1937; assay: COMPOUND A In Vitro Assay; format: cell-based; conditions: Homo sapiens, Breast, TP53 NA
In short: as §1

[23] = test system: SK-ES-1; assay: COMPOUND A In Vitro Assay; format: cell-based; conditions: Homo sapiens, SK-ES1, Bone, TP53 Mutant
In short: as §1

[24] = test system: HCC1143; assay: COMPOUND A In Vitro Assay; format: cell-based; conditions: Homo sapiens, Breast, mammary gland, TP53 Mutant
In short: as §1

[25] = test system: COLO 320DM; assay: COMPOUND A In Vitro Assay; format: cell-based; conditions: Homo sapiens, Intestine, large, colon, TP53 Mutant
In short: as §1

CCOc1cc(C(C)(C)C)ccc1C1=N[C@@](C)(c2ccc(Cl)cc2)[C@@](C)(c2ccc(Cl)cc2)N1C(=O)N1CCN(CCCS(C)(=O)=O)CC1 [COMPOUND A]
Ki-67-positive tumor cells change from baseline [1]: decreased
P21 concentration change from baseline [2]: significantly increase
Ki-67-positive tumor cells change from baseline [3]: decreased
AUC(0-t) [4]: 190 µg·h/mL
P21 concentration change from baseline [5]: significantly increase
MDM2 mRNA expression change from baseline [6]: significantly increase
pIC50 [7]: 5.13
pIC50 [8]: 4.85
pIC50 ([9]; Hs 38•T cells): 6.15
pIC50 ([9]; Hs 38•T, Ovary, TP53 Wild type): 6.14
pIC50 [10]: 5.21
pIC50 [11]: 5.70
pIC50 [12]: 4.92
pIC50 [13]: 4.77
pIC50 [14]: 4.72
pIC50 [15]: 4.77
pIC50 [16]: 5.02
pIC50 [17]: 5.44
pIC50 [18]: 4.66
pIC50 [19]: 4.74
pIC50 [20]: 4.80
pIC50 [21]: 5.05
pIC50 [22]: 4.82
pIC50 [23]: 4.60
pIC50 [24]: 4.92
pIC50 [25]: 4.92
